Series [1] concerns Escherichia coli. As to the kind of experiment: microbe, parasite or virus in culture.
Description: In vitro minimum inhibitory concentration against Escherichia coli (DC0 parent organism).
The subject of series [2] is Staphylococcus aureus. The experiment in a line: microbe, parasite or virus in culture.
Description: The compound was tested for minimum inhibitory concentration in Staphylococcus aureus,147N penicillin sensitive Staphylococcus aureus
Series [3] has as its system Pseudomonas aeruginosa. The experiment in a line: microbe, parasite or virus in culture.
Description: Minimum inhibitory concentration in Pseudomonas aeruginosa,799WT parent organism
The test system of series [4] is Enterobacter cloacae. As to the kind of experiment: microbe, parasite or virus in culture.
Description: Minimum inhibitory concentration in Enterobacter cloacae, P99- inducible type 1 lactamase producer
Series [5] deals with Enterobacter cloacae. The experiment in a line: microbe, parasite or virus in culture. This is another data set of the same source.
Description: Minimum inhibitory concentration in Enterobacter cloacae, P99+ constitutive depressed type 1 lactamase producer
Series [6] concerns Providencia stuartii. The experiment in a line: microbe, parasite or virus in culture.
Description: Minimum inhibitory concentration in Pseudomonas stuartii, I+442019 inducible type 1 lactamase producer
Series [7] has as its system Providencia stuartii. As to the kind of experiment: microbe, parasite or virus in culture. This is another data set of the same source.
Description: Minimum inhibitory concentration in Pseudomonas stuartii, DR 442049 constitutive depressed type 1 lactamase producer
The subject of series [8] is Citrobacter freundii. As to the kind of experiment: microbe, parasite or virus in culture.
Description: Minimum inhibitory concentration in Citrobacter freundii, I+382010 inducible type 1 lactamase producer
The test system of series [9] is Pseudomonas aeruginosa. The experiment in a line: microbe, parasite or virus in culture. The source holds these as a separate data set.
Description: Minimum inhibitory concentration in Pseudomonas aeruginosa, 18SH constitutive depressed type 1 lactamase producer
Series [10] has as its system Citrobacter freundii. The experiment in a line: microbe, parasite or virus in culture. The source holds these as a separate data set.
Description: Minimum inhibitory concentration in Citrobacter freundii, DR 382031 constitutive depressed type 1
Series [11] concerns Pseudomonas aeruginosa. The experiment in a line: microbe, parasite or virus in culture. This is another data set of the same source.
Description: In vitro minimum inhibitory concentration against Pseudomonas aeruginosa (PU21).
Series [12] has as its system Escherichia coli. As to the kind of experiment: microbe, parasite or virus in culture. This is another data set of the same source.
Description: In vitro minimum inhibitory concentration against Escherichia coli (DC2 permeability mutant).
Series [13] relates to Staphylococcus aureus. As to the kind of experiment: microbe, parasite or virus in culture. This is another data set of the same source.
Description: The compound was tested for minimum inhibitory concentration in Staphylococcus aureus Oxford penicillin sensitive Staphylococcus aureus
Series [14] concerns Enterobacter cloacae. As to the kind of experiment: microbe, parasite or virus in culture. The source holds these as a separate data set.
Description: Minimum inhibitory concentration in Enterobacter cloacae, I+401029 inducible type 1 lactamase producer
Series [15] deals with Pseudomonas aeruginosa. The experiment in a line: microbe, parasite or virus in culture. The source holds these as a separate data set.
Description: Minimum inhibitory concentration in Pseudomonas aeruginosa,799/61 permeability mutant
Series [16] deals with Pseudomonas aeruginosa. As to the kind of experiment: microbe, parasite or virus in culture. This is another data set of the same source.
Description: Minimum inhibitory concentration in Pseudomonas aeruginosa, 18S inducible type 1 lactamase producer
Series [17] is described as follows: The compound was evaluated for area under the curve in marmosets. The class given is ADME. Conditions: callithrix, in vivo.
The nature of series [18]: The half life period in marmosets. Type of series: ADME. Conditions: callithrix, in vivo.
The test system of series [19] is Enterobacter cloacae. As to the kind of experiment: microbe, parasite or virus in culture. This is another data set of the same source.
Description: Minimum inhibitory concentration in Enterobacter cloacae, DR 401108 constitutive depressed type 1 lactamase producer

≈ marks a conversion by molar mass, not a printed value.

Description for physchem: The dissociation constant of compound was tested for beta-Lactamase stability

`CC(=O)Oc1ccc(C(=O)OCC2=C(C(=O)O)N3C(=O)[C@@H](NC(=O)Cc4cccs4)C3SC2)cc1OC(C)=O` (stereo partly specified): the MIC in the series on Escherichia coli [1] is 0.5 µg/mL (≈ 0.87 µM); with Staphylococcus aureus [2], 0.06 µg/mL (≈ 0.104 µM); against Pseudomonas aeruginosa [3] it was over 128 µg/mL; in the series on Enterobacter cloacae [4], 16 µg/mL (≈ 27.8 µM); against Enterobacter cloacae [5], over 128 µg/mL; against Providencia stuartii [6], 64 µg/mL (≈ 111 µM). Besides, the MIC with Providencia stuartii [7] is over 128 µg/mL; with Citrobacter freundii [8], 16 µg/mL (≈ 27.8 µM); against Pseudomonas aeruginosa [9] it was over 128 µg/mL; in the series with Citrobacter freundii [10] it was over 128 µg/mL; in the series with Pseudomonas aeruginosa [11] it was over 128 µg/mL; in the series with Escherichia coli [12], 0.03 µg/mL (≈ 0.0522 µM). Also, the MIC against Staphylococcus aureus [13] is 0.03 µg/mL (≈ 0.0522 µM); in the series on Enterobacter cloacae [14], 128 µg/mL (≈ 223 µM); against Pseudomonas aeruginosa [15], 0.125 µg/mL (≈ 0.218 µM); against Pseudomonas aeruginosa [16], over 128 µg/mL.

As to `CCN(CC1=C(C(=O)O)N2C(=O)[C@@H](NC(=O)/C(=N\OC(C)(C)C(=O)O)c3csc(N)n3)C2SC1)C(=O)c1cc(O)c(O)c(Cl)c1` (stereo partly specified), in series [17], the AUC was found to be 16.4 mg/h/L. Moreover, in “physchem”, the pKa came out at 7.4. The MIC against Pseudomonas aeruginosa [3] came to 0.008 µg/mL (≈ 0.0117 µM); in the series on Enterobacter cloacae [4] it was 0.125 µg/mL (≈ 0.183 µM); against Enterobacter cloacae [5] it was 1 µg/mL (≈ 1.46 µM); against Providencia stuartii [6] it was 0.25 µg/mL (≈ 0.366 µM); in the series on Providencia stuartii [7], 8 µg/mL (≈ 11.7 µM); in the series with Citrobacter freundii [8] it was 0.008 µg/mL (≈ 0.0117 µM). Also, the MIC in the series with Pseudomonas aeruginosa [9] amounted to 0.06 µg/mL (≈ 0.0878 µM); in the series with Citrobacter freundii [10], 1 µg/mL (≈ 1.46 µM); against Enterobacter cloacae [19] it was 1 µg/mL (≈ 1.46 µM); in the series with Enterobacter cloacae [14], 0.015 µg/mL (≈ 0.022 µM); against Pseudomonas aeruginosa [15], 0.008 µg/mL (≈ 0.0117 µM); against Pseudomonas aeruginosa [16] it was 0.008 µg/mL (≈ 0.0117 µM). In series [18], this compound showed a half-life of 52.2 min.

With `CC(C)(O/N=C(\C(=O)N[C@@H]1C(=O)N2C(C(=O)O)=C(CNC(=O)c3cc(O)c(O)c(C#N)c3)CSC12)c1csc(N)n1)C(=O)O` (stereo partly specified), the MIC was determined as 0.008 µg/mL (≈ 0.0124 µM) in the series with Pseudomonas aeruginosa [3]; 0.06 µg/mL (≈ 0.0929 µM) against Enterobacter cloacae [4]; 2 µg/mL (≈ 3.1 µM) against Enterobacter cloacae [5]; 0.06 µg/mL (≈ 0.0929 µM) against Providencia stuartii [6]; 4 µg/mL (≈ 6.2 µM) in the series with Providencia stuartii [7]; 0.008 µg/mL (≈ 0.0124 µM) in the series on Citrobacter freundii [8]. Moreover, the MIC with Pseudomonas aeruginosa [9] stood at 0.06 µg/mL (≈ 0.0929 µM); in the series with Citrobacter freundii [10], 2 µg/mL (≈ 3.1 µM); in the series with Enterobacter cloacae [19], 8 µg/mL (≈ 12.4 µM); against Enterobacter cloacae [14], 0.03 µg/mL (≈ 0.0465 µM); in the series with Pseudomonas aeruginosa [15], 0.008 µg/mL (≈ 0.0124 µM); with Pseudomonas aeruginosa [16], 0.008 µg/mL (≈ 0.0124 µM).

With `CCN(CC1=C(C(=O)O)N2C(=O)[C@@H](NC(=O)/C(=N\OC(C)(C)C(=O)O)c3csc(N)n3)C2SC1)C(=O)c1cc(O)c(O)c(C#N)c1` (stereo partly specified), the MIC worked out at 0.008 µg/mL (≈ 0.0119 µM) against Pseudomonas aeruginosa [3]; 0.06 µg/mL (≈ 0.0891 µM) with Enterobacter cloacae [4]; 1 µg/mL (≈ 1.48 µM) with Enterobacter cloacae [5]; 0.25 µg/mL (≈ 0.371 µM) against Providencia stuartii [6]; 16 µg/mL (≈ 23.7 µM) with Providencia stuartii [7]; 0.008 µg/mL (≈ 0.0119 µM) in the series on Citrobacter freundii [8]. The MIC in the series on Pseudomonas aeruginosa [9] is 0.125 µg/mL (≈ 0.186 µM); in the series with Citrobacter freundii [10], 1 µg/mL (≈ 1.48 µM); in the series with Enterobacter cloacae [19] it was 1 µg/mL (≈ 1.48 µM); against Enterobacter cloacae [14], 0.015 µg/mL (≈ 0.0223 µM); in the series with Pseudomonas aeruginosa [15], 0.008 µg/mL (≈ 0.0119 µM); in the series with Pseudomonas aeruginosa [16], 0.008 µg/mL (≈ 0.0119 µM).

In the case of `CCOC(=O)C(CC1=C(C(=O)O)N2C(=O)[C@@H](NC(=O)/C(=N\OC(C)(C)C(=O)O)c3csc(N)n3)C2SC1)C(=O)c1cc(O)c(O)c(Br)c1` (stereo partly specified), the MIC in the series on Pseudomonas aeruginosa [3] came out at 0.008 µg/mL (≈ 0.0104 µM); against Enterobacter cloacae [4], 0.125 µg/mL (≈ 0.162 µM); in the series with Enterobacter cloacae [5], 0.25 µg/mL (≈ 0.324 µM); in the series with Providencia stuartii [6], 0.125 µg/mL (≈ 0.162 µM); with Providencia stuartii [7], 0.5 µg/mL (≈ 0.649 µM); against Citrobacter freundii [8], 0.008 µg/mL (≈ 0.0104 µM). The MIC with Pseudomonas aeruginosa [9] was 0.008 µg/mL (≈ 0.0104 µM); with Citrobacter freundii [10], 0.25 µg/mL (≈ 0.324 µM); against Enterobacter cloacae [19], 0.25 µg/mL (≈ 0.324 µM); against Enterobacter cloacae [14] it was 0.03 µg/mL (≈ 0.0389 µM); in the series on Pseudomonas aeruginosa [15], 0.008 µg/mL (≈ 0.0104 µM); against Pseudomonas aeruginosa [16] it was 0.008 µg/mL (≈ 0.0104 µM).

In the case of `CCO/N=C(\C(=O)N[C@@H]1C(=O)N2C(C(=O)O)=C(CNC(=O)c3ccc(O)c(O)c3)CSC12)c1csc(N)n1` (stereo partly specified), the MIC against Escherichia coli [1] was 0.06 µg/mL (≈ 0.107 µM); in the series with Staphylococcus aureus [2], 4 µg/mL (≈ 7.11 µM); against Pseudomonas aeruginosa [3] it was 0.06 µg/mL (≈ 0.107 µM); in the series with Enterobacter cloacae [4] it was 0.5 µg/mL (≈ 0.889 µM); in the series on Enterobacter cloacae [5], 64 µg/mL (≈ 114 µM); with Providencia stuartii [6], 0.5 µg/mL (≈ 0.889 µM). For the same compound, the MIC with Providencia stuartii [7] was 1 µg/mL (≈ 1.78 µM); in the series with Citrobacter freundii [8], 0.06 µg/mL (≈ 0.107 µM); in the series on Pseudomonas aeruginosa [9], 64 µg/mL (≈ 114 µM); with Citrobacter freundii [10], over 128 µg/mL; in the series on Pseudomonas aeruginosa [11], 0.25 µg/mL (≈ 0.444 µM); against Enterobacter cloacae [19], 128 µg/mL (≈ 228 µM). For the same compound, the MIC against Escherichia coli [12] was 0.008 µg/mL (≈ 0.0142 µM); with Staphylococcus aureus [13], 2 µg/mL (≈ 3.56 µM); against Enterobacter cloacae [14], 0.25 µg/mL (≈ 0.444 µM); with Pseudomonas aeruginosa [15] it was 0.015 µg/mL (≈ 0.0267 µM); with Pseudomonas aeruginosa [16] it was 0.03 µg/mL (≈ 0.0533 µM).

On to `Nc1nc(/C(=N/OC2(C(=O)O)CCCC2)C(=O)N[C@@H]2C(=O)N3C(C(=O)O)=C(CNC(=O)c4cc(O)c(O)c(Br)c4)CSC23)cs1` (stereo partly specified), for which the MIC against Escherichia coli [1] was found to be 0.008 µg/mL (≈ 0.011 µM); against Staphylococcus aureus [2], 32 µg/mL (≈ 44.1 µM); with Pseudomonas aeruginosa [3], 0.008 µg/mL (≈ 0.011 µM); with Enterobacter cloacae [4] it was 0.03 µg/mL (≈ 0.0413 µM); in the series on Enterobacter cloacae [5], 2 µg/mL (≈ 2.76 µM); in the series on Providencia stuartii [6] it was 0.03 µg/mL (≈ 0.0413 µM). Besides, the MIC against Providencia stuartii [7] amounted to 2 µg/mL (≈ 2.76 µM); in the series on Citrobacter freundii [8], 0.008 µg/mL (≈ 0.011 µM); against Pseudomonas aeruginosa [9] it was 0.008 µg/mL (≈ 0.011 µM); against Citrobacter freundii [10], 4 µg/mL (≈ 5.51 µM); in the series with Pseudomonas aeruginosa [11], 0.015 µg/mL (≈ 0.0207 µM); in the series with Enterobacter cloacae [19], 16 µg/mL (≈ 22.1 µM). In addition, the MIC in the series with Escherichia coli [12] was 0.008 µg/mL (≈ 0.011 µM); against Staphylococcus aureus [13], 16 µg/mL (≈ 22.1 µM); with Enterobacter cloacae [14] it was 0.03 µg/mL (≈ 0.0413 µM); in the series with Pseudomonas aeruginosa [15] it was 0.008 µg/mL (≈ 0.011 µM); against Pseudomonas aeruginosa [16], 0.015 µg/mL (≈ 0.0207 µM).
